# Values of other authors, collected in patent publication US12290506B2, “Compositions and formulations for use of a PK inhibitor for the prevention, treatment, and improvement of skin diseases, conditions, and disorders” (DermBiont, Inc., priority 2022, dated 2025).
# Tested on: UV induced neo-melanogenesis
# Settings: topical application, guinea pig model
substance,measurement,value
bisindolylmaleimide,UV induced neo-melanogenesis,inhibit UV induced neo-melanogenesis
